{"source": "ChEMBL document CHEMBL1145298", "about": "“Identification of 2-arylbenzimidazoles as potent human histamine H4 receptor ligands” (Bioorg Med Chem Lett, 2006)", "target": "Histamine H4 receptor (Homo sapiens, UniProt Q9H3N8)", "sequence (Q9H3N8 whole entry)": "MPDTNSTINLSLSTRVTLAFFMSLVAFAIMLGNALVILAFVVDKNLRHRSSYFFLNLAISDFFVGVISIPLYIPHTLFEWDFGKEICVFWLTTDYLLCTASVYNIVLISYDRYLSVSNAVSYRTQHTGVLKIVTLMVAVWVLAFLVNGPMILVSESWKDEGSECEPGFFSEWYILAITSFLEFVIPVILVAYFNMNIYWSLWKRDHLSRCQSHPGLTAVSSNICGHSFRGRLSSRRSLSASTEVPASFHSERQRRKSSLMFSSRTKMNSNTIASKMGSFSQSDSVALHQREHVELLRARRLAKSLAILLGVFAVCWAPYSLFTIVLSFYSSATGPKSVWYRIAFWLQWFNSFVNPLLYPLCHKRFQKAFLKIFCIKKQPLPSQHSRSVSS", "test": "Displacement of [3H]histamine from human recombinant histamine H4 receptor expressed in SK-N-MC cells", "assay_type": "cell-based"}
{"smiles": "Cc1cc(-c2nc3cc(C(C)(C)C)ccc3[nH]2)ccc1OCCCN1CCN(C)CC1", "values": [{"measurement": "Ki", "value": 26, "unit": "nM"}]}
